Reference: patent publication US4576957A, “N-(Substituted phenyl)-N'-[(1H-imidazol-1-yl) and (1H-1,2,4-triazol-1-yl)alkyl]ureas” (American Cyanamid Company, priority 1984, dated 1986)

What was measured:
[1] = test system: coronary arteries of guinea pigs; conditions: cited from earlier work
[2] = test system: coronary arteries of rabbits; conditions: cited from earlier work
[3] = test system: spontaneously hypertensive rats; assay: Hypotensive Activity in Spontaneously Hypertensive Rats; assay type: in vivo; conditions: gavage, 100 mg./kg. or less, two doses 24 hours apart; measured 28 hours after initial dose; initial average 170±1.5 mm
Protocol: The novel compounds of the present invention are active hypotensive agents and were tested for hypotensive activity by the method of P. S. Chan and D. Poorvin, Clinical and Experimental Hypertension, 1 (6), 817-830 (1979). Male, 16 week old, spontaneously hypertensive rats of the Okamoto strain, from Taconic Farms, Germantown, N.Y., having an average mean arterial blood pressure of 170±1.5 mm of mercury are used in the test. One to 3 rats are used per test compound. A rat is dosed by gavage with a test compound, suspended in 2% pre-boiled starch at a concentration of 50 mg./ml., at a dose of 100 mg./kg. of body weight or less, with 0.9% sodium chloride loading at a dose of 25 ml./kg. of body weight. A second identical dose of the test compound, without sodium chloride loading is given 24 hours later. At 28 hours after the initial dose the mean arterial blood pressure is measured by the method of Chan and Poorvin vide supra. The procedure is repeated in a second and third rat when necessary.

[4] = target: T1, thromboxane synthetase enzyme (Rattus norvegicus, UniProt P49430); assay: Thromboxane Synthetase Enzyme Inhibition (TXB2 formation by washed SHR platelets, RIA); assay type: cell-based, Okamoto-Aoki spontaneously hypertensive rats (SHR); conditions: 10 min; Dose 10^-4 (unit inferred); SHR platelet suspension, 10 minutes at 37° C.
T1 construct: The platelets were isolated by centrifuging the PRP for 10 minutes at 1060xg; endogenous in cells; host or cells: washed platelets from arterial blood of Okamoto-Aoki spontaneously hypertensive rats (Taconic Farms, Germantown, NY)
T1 sequence (P49430 1-533): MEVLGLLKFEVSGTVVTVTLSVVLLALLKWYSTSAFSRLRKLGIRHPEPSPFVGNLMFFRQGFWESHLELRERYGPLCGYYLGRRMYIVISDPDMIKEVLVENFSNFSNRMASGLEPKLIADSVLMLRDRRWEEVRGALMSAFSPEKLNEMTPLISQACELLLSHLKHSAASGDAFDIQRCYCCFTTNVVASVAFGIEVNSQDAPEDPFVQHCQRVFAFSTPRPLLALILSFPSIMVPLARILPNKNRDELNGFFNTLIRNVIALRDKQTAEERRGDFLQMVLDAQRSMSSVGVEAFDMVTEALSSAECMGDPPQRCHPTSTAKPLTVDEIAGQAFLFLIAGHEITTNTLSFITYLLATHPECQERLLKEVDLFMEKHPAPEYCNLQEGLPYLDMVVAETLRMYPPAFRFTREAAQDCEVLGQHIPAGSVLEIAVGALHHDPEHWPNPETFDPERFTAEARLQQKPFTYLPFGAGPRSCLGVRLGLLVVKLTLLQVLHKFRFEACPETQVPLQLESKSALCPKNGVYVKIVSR
Protocol: Under urethan anesthesia, […] of arterial blood was collected in one ml. of 3.2% sodium citrate in a polystyrene tube from Okamoto-Aoki spontaneously hypertensive rats (SHR) (Taconic Farms, Germantown, NY) between 19 and 24 weeks in age. The blood was diluted with 3 ml. cold saline and centrifuged at room temperature for 15 minutes at 460xg. The platelet rich plasma (PRP) was separated. The platelets were isolated by centrifuging the PRP for 10 minutes at 1060xg and were washed in 4 ml. of cold oxygenated Krebs phosphate buffer, pH 7.4. The chilled platelets recovered from centrifuging at 800xg for 10 minutes were resuspended in oxygenated Krebs phosphate buffer and diluted to contain 4.5-6.0×10^4 platelets/μl.
The inhibition of thromboxane (TX) formation was studied by determining the concentration of thromboxane B2 (TXB2), the stable hydrolysis product of TXA2. Assay samples, prepared on ice, contained 200 μl platelet suspension, 50 μl saline and 50 μl saline and 50 μl vehicle or drug under study. The samples were incubated for 10 minutes at 37° C. in a metabolic shaker. The reaction was terminated by immersing the tubes in an ice bath and adding 50 μl of 0.5M citric acid. The samples were centrifuged for 10 minutes in a refrigerated centrifuge and the supernatants thus obtained were decanted and stored at -20° C. The TXB2 content for each sample was determined by a direct radioimmunoassay (RIA) utilizing a TXB2 specific RIA kit purchased from New England Nuclear, Boston, MA and expressed as pg TXB2 formed minute^-1 sample^-1, from which the percent inhibition of TXB2 formation was calculated.

[5] = test system: ischemic myocardium in canines; conditions: cited from earlier work

Row | inhibition at 100 µM [4] [%] | SMILES | Average MABP [3] [mm Hg] | further results
1 |  | CCCCC[C@H](O)/C=C/[C@H]1O[C@H]2C[C@H](O2)[C@@H]1C/C=C\CCCC(=O)O [TXA2, thromboxane A2] |  | effect of injection into coronary arteries [1]: causes myocardial ischemia and subendocardial necrosis; effect of injection into coronary arteries [2]: causes myocardial ischemia and subendocardial necrosis
2 |  | O=C(NCCCn1cncn1)Nc1ccc(Cl)c(Cl)c1 [N--(3,4-dichlorophenyl)-N'--[3-(1H--1,2,4-triazol-1-yl)-propyl]urea] | 155 | 
3 | 86 | O=C(NCCCn1ccnc1-c1ccccc1)Nc1ccc(Cl)cc1 [N--(4-chlorophenyl)-N'--[3-(2-phenyl-1H--imidazol-1-yl)-propyl]urea] |  | 
4 | 92 | O=C(NCCCn1ccnc1)Nc1ccc(Cl)cc1 [N-(4-Chlorophenyl)-N'-[3-(1H-imidazol-1-yl)propyl]urea] | 122 | 
5 | 71 | COc1ccc(NC(=O)NCCCn2cncn2)cc1 [N--(4-methoxyphenyl)-N'--[3-(1H--1,2,4-triazol-1-yl)-propyl]urea] |  | 
6 | 94 | COc1ccc(NC(=O)NCCCn2ccnc2)cc1 [N--[3-(1H--imidazol-1-yl)propyl]-N'--(4-methoxyphenyl)urea] |  | 
7 | 95 | O=C(NCCCn1ccnc1)Nc1ccc(Cl)c(Cl)c1 [N--(3,4-dichlorophenyl)-N'--[3-(1H--imidazole-1-yl)propyl]-urea] | 146 | 
8 | 97 | O=C(NCCCn1cncn1)Nc1ccc(F)cc1 [N--(4-fluorophenyl)-N'--[3-(1H--1,2,4-triazol-1-yl)propyl]urea] |  | 
9 | 95 | O=C(NCCCCn1ccnc1)Nc1ccc(Cl)cc1 [N--(4-chlorophenyl)-N'--[4-(1H--imidazol-1-yl)butyl]urea] | 131 | 
10 | 99 | O=C(NCCCn1ccnc1)Nc1ccccc1F [N--(2-fluorophenyl)-N'--[3-(1H--imidazole-1-yl)propyl]-urea] | 135 | 
11 |  | O=C(NCCCCn1ccnc1)Nc1ccccc1Br [N--(2-bromophenyl)-N'--[4-(1H--imidazol-1-yl)-butyl]-urea] | 98 | 
12 |  | O=C(NCCCn1cncn1)Nc1ccccc1 [N--phenyl-N'--[3-(1H--1,2,4-triazol-1-yl)propyl]urea] | 151 | 
13 | 100 | O=C(NCCCn1ccnc1)Nc1ccc(F)cc1 [N--(4-fluorophenyl)-N'--[3-(1H--imidazol-l-yl)propyl]-urea] | 134 | 
14 | 92 | O=C(NCCCCCn1ccnc1)Nc1ccc(Cl)cc1 | 153 | 
15 | 97 | O=C(NCCCn1ccnc1)Nc1ccccc1 [N--[3-(1H--imidazol-1-yl)propyl]-N'--phenylurea] | 141 | 
16 | 98 | Cc1ccc(NC(=O)NCCCn2ccnc2)cc1 [N--[3-(1H--imidazole-1-yl)-propyl]-N'--(4-methylphenyl)-urea] |  | 

Row | inhibition at 100 µM [4] [%] | SMILES | Average MABP [3] [mm Hg] | further results
17 | 85 | O=C(NCCCn1cncn1)Nc1ccccc1Br [N--(2-bromophenyl)-N'--[3-(1H--1,2,4-triazol-1-yl)propyl]-urea] | 130 | 
18 | 86 | O=C(NCCCn1cncn1)Nc1ccc(Br)cc1 [N--(4-bromophenyl)-N'--[3-(1H--1,2,4-triazol-1-yl)propyl]urea] |  | 
19 |  | CCCCC[C@H](O)/C=C/[C@@H]1[C@H]2C/C(=C/CCCC(=O)O)O[C@H]2C[C@H]1O [PGI2, Prostacyclin] |  | effect on ischemic myocardium [5]: beneficial effects
20 | 70 | O=C(NCCCn1cncn1)Nc1ccccc1F [N--(2-fluorophenyl)-N'--[3-(1H--1,2,4-triazol-1-yl)propyl]-urea] | 149 | 
21 | 94 | O=C(NCCCn1ccnc1)Nc1ccccc1Cl [N--(2-chlorophenyl)-N'--[3-(1H--imidazole-1-yl)propyl]-urea] | 123 | 
22 | 93 | O=C(NCCCn1cncn1)Nc1ccc(Cl)cc1 [N-(4-Chlorophenyl)-N'-[3-(1H-1,2,4 triazol-1-yl)propyl]urea] | 145 | 
23 | 95 | O=C(NCCCn1ccnc1)Nc1ccc(Br)cc1 [N--(4-bromophenyl)-N'--[3-(1H--imidazole-1-yl)propyl]-urea] | 145 | 
24 | 99 | O=C(NCCCn1cncn1)Nc1cccc(Cl)c1 [N--(3-chlorophenyl)-N--[3-(1H--1,2,4-triazol-1-yl)propy]-urea] | 149 | 
25 | 100 | O=C(NCCCn1ccnc1)Nc1cccc(Cl)c1 [N--(3-chlorophenyl)-N'--[3-(1H--imidazole-1-yl)propyl]-urea] | 124 | 
26 | 92 | Cc1cn(CCCNC(=O)Nc2ccc(Cl)cc2)cn1 [N--(4-chlorophenyl)-N'--[3-(4-methyl-1H--imidazol-1-yl)-propyl]urea] | 138 | 
27 | 99 | O=C(NCCCn1cncn1)Nc1cccc(C(F)(F)F)c1 [N-[3-(1H-1,2,4-triazol-1-yl)propyl]-N'-[3-(trifluoromethyl)phenyl]urea] | 143 | 
28 | 86 | O=C(NCCCn1cncn1)Nc1ccccc1Cl [N--(2-chlorophenyl)-N'--[3-(1H--1,2,4-triazol-1-yl)propyl]-urea] | 142 | 
29 | 100 | Cc1cn(CCCCNC(=O)Nc2ccc(Cl)cc2)cn1 [N--(4-chlorophenyl)-N'--[4-(4-methyl-1H--imidazol-1-yl)-butyl]urea] |  | 
30 |  | O=C(NCCCCn1ccnc1)Nc1ccccc1Cl [N-(2-Chlorophenyl)-N'-[4-(-1H-imidazol-1-yl)butyl]urea] | 97 | 
31 | 95 | O=C(NCCCn1ccnc1)Nc1ccccc1Br [N--(2-bromophenyl)-N'--[3-(1H--imidazole-1-yl)propyl]-urea] | 113 | 
32 | 100 | O=C(NCCCn1ccnc1)Nc1cccc(C(F)(F)F)c1 [N-[3-(1H-Imidazol-1-yl)propyl]-N'-[3-(trifluoromethyl)phenyl]urea] |  | 
